Results published in patent US6423717B1, “Sulphonamide derivatives, process for their preparation, and their use as medicaments” (SmithKline Beecham p.l.c., priority 1996, dated 2002).
pKi: −log10 of the molar value.

The molecules below were run against T1, human cloned 5-HT6 receptors (Homo sapiens, UniProt P50406) (assay: 5-HT6 receptor binding assay, [3H]-LSD displacement on washed membranes of HeLa-5HT6 cells). Conditions: radio-ligand [3H]-LSD 2.0 nM, HeLa-5HT6 cell membranes, 37° C., Ki by Cheng and Prusoff.
T1 construct: host or cells: HeLa cells expressing 5-HT6 (HeLa-5HT6), washed membranes
T1 sequence (P50406 whole entry): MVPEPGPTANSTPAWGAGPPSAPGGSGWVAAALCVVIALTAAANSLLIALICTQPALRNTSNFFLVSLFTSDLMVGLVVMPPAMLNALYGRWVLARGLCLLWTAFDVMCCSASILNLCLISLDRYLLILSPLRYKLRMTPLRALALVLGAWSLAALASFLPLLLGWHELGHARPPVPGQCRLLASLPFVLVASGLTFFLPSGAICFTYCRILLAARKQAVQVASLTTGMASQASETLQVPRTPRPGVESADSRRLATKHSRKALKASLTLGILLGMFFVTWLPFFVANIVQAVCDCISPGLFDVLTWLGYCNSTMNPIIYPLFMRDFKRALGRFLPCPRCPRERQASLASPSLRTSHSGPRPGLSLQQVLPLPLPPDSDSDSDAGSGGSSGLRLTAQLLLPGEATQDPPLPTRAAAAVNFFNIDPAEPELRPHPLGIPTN
Protocol: Method for assay of 5-HT6 antagonistic activity:
The test compounds were dissolved in polyethylene glycol:dimethyl sulphoxide (1:1) at 1 or 10 mM and diluted to 0.1 mM using 5 mM tris buffer (pH 7.7 @25° C.). Dissolution was assisted by addition of 0.02 ml 5M HCl plus heating to 40° C. and sonication for 10 minutes. […] The incubation buffer was 50 mM Trizma (Sigma, UK) pH7.7 @25° C., 4 mM MgCl2.
After incubation at 37° C., the mixtures were filtered using a Packard Filtermate in Packard TopCount format. Filters were washed with 4×1 ml aliquots of ice-cold incubation buffer. Filters were dried and impregnated with 0.04 ml of Microscint 20 (Packard). IC50 values were estimated from the counts per minute using a four parameter logistic curve fit within EXCEL (2). Ki values were calculated using the method of Cheng and Prusoff(3). pIC50 and pKi are the negative log10 of the molar IC50 and Ki respectively.

Compound	pKi
COc1ccc(NS(=O)(=O)c2cccc(Br)c2)cc1N1CCN(C)CC1 [Example 11, 3-Bromo-N-[4-methoxy-3-(4-methylpiperazin-1-yl)phenyl]benzenesulfonamide]	> 8.00
COc1ccc(NS(=O)(=O)c2cc(Cl)cc(Cl)c2)cc1N1CCN(C)CC1 [Example 15, 3,5-Dichloro-N-[4-methoxy-3-(4-methylpiperazin-1-yl)phenyl]benzenesulfonamide]	> 8.00
COc1ccc(NS(=O)(=O)c2ccc3c(Cl)cccc3c2)cc1N1CCN(C)CC1 [Example 61, 5-Chloronaphthalene-2-sulfonic acid [4-methoxy-3-(4-methylpiperazin-1-yl)phenyl] amide]	> 8.00
COc1ccc(NS(=O)(=O)c2c(C)sc3ccc(Cl)cc23)cc1N1CCN(C)CC1 [Example 65, 5-Chloro-2-methylbenzo[b]thiophene-3-sulfonic acid [4-methoxy-3-(4-methylpiperazin-1-yl)phenyl] amide]	> 8.00
COc1ccc(NS(=O)(=O)c2cccc(I)c2)cc1N1CCNCC1 [Example 70, 3-Iodo-N-(4-methoxy-3-piperazin-1-ylphenyl)benzenesulfonamide]	> 8.00
COc1ccc(NS(=O)(=O)c2cc(Cl)cc(Cl)c2)cc1N1CCNCC1 [Example 72, 3,5-Dichloro-N-(4-methoxy-3-piperazin-1-ylphenyl)benzenesulfonamide]	> 8.00
COc1ccc(NS(=O)(=O)c2cccc(Br)c2)cc1N1CCNCC1 [Example 77, 3-Bromo-N-(4-methoxy-3-piperazin-1-ylphenyl)benzenesulfonamide]	> 8.00
COc1ccc(NS(=O)(=O)c2cccc(Cl)c2)cc1N1CCNCC1 [Example 78, 3-Chloro-N-(4-methoxy-3-piperazin-1-ylphenyl)benzenesulfonamide]	> 8.00
COc1ccc(NS(=O)(=O)c2ccc3c(Cl)cccc3c2)cc1N1CCNCC1 [Example 79, 5-Chloronaphthalene-2-sulfonic acid(4-methoxy-3-piperazin-1-ylphenyl)amide]	> 8.00
COc1ccc(NS(=O)(=O)c2c(C)sc3ccc(Cl)cc23)cc1N1CCNCC1 [Example 84, 5-Chloro-2-methylbenzo[b]thiophene-3-sulfonic acid (4-methoxy-3-piperazin-1-ylphenyl) amide]	> 8.00
COc1ccc(NS(=O)(=O)c2ccc3ccccc3c2)cc1N1CCNCC1 [Example 87, Naphthalene-2-sulfonic acid(4-methoxy-3-piperazin-1-ylphenyl)amide]	> 8.00
COc1ccc(NS(=O)(=O)c2ccc(Cl)c(Cl)c2)cc1N1CCNCC1 [Example 90, 3,4-Dichloro-N-(4-methoxy-3-piperazin-1-ylphenyl)benzenesulfonamide]	> 8.00
